Broadly, the inhibition is the change of the read-out against control, counted positive when it falls.

The target in this assay is T1, PfFd-PfFNR (Plasmodium falciparum, UniProt C6KT68+Q8IED5).
T1 construct: gene FNR; recombinant PfFNR (E. coli TG1 pTrc99A) and PfFd (E. coli JM105 pTrc99A), purified; PfFd 2Fe-2S, PfFNR flavoprotein
T1 sequence (C6KT68 56-371): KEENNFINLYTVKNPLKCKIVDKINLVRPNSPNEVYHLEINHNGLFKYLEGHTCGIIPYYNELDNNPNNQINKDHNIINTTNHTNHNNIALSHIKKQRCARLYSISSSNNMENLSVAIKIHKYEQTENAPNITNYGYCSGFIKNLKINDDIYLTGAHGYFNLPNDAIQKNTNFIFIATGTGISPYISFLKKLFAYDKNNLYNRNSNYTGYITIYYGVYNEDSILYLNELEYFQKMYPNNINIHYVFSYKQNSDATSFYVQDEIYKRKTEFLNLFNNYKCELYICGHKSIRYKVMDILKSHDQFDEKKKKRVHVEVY
T1 sequence (Q8IED5 97-194 limits assumed): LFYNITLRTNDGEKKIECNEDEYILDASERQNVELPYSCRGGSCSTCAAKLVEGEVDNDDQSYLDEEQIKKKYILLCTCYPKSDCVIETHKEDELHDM
Description: cytochrome c reduction at […] nm, FNR-Fd electron transfer. Type of assay: biochemical.
With `COc1ccc(OC)c(/C=C/C(=O)c2ccc(N)cc2)c1` [compound 6, (E)-1-(4-Aminophenyl)-3-(2,5-dimethoxyphenyl)prop-2-en-1-one], the inhibition at 100 µM is -14.1%. Consider `COc1ccc(/C=C/C(=O)c2ccccc2)cc1` [compound 10, (E)-3-(4-Methoxyphenyl)-1-phenylprop-2-en-1-one], for which the inhibition at 100 µM worked out at 4.69%. In the case of `Nc1ccc(C(=O)/C=C/c2ccccc2)cc1` [compound 7, (E)-1-(4-Aminophenyl)-3-phenylprop-2-en-1-one] it was 10.9%; in that of `COc1cccc(/C=C/C(=O)c2ccccc2)c1` [compound 9, (E)-3-(3-Methoxyphenyl)-1-phenylprop-2-en-1-one], 0%; in that of `COc1ccccc1/C=C/C(=O)c1ccc(N)cc1` [compound 1, (E)-1-(4-Aminophenyl)-3-(2-methoxyphenyl)prop-2-en-1-one], 15.8%. Then `COc1cccc(/C=C/C(=O)c2ccc(N)cc2)c1OC` [compound 4, (E)-1-(4-Aminophenyl)-3-(2,3-dimethoxyphenyl)prop-2-en-1-one], with 31.6%. As to `COc1cccc(/C=C/C(=O)c2ccccc2)c1OC` [compound 11, (E)-3-(2,3-Dimethoxyphenyl)-1-phenylprop-2-en-1-one], the inhibition at 100 µM was -5.88%. `COc1ccc(OC)c(/C=C/C(=O)c2ccc(Br)cc2)c1` [compound 16, (E)-1-(4-Bromophenyl)-3-(2,5-dimethoxyphenyl)prop-2-en-1-one]: the inhibition at 100 µM was 11.8%. Then `COc1ccccc1/C=C/C(=O)c1ccccc1` [compound 8, (E)-3-(2-Methoxyphenyl)-1-phenylprop-2-en-1-one], with -10.3%. In the case of `COc1ccc(/C=C/C(=O)c2ccc(Br)cc2)cc1` [compound 14, (E)-1-(4-Bromophenyl)-3-(4-methoxyphenyl)prop-2-en-1-one] it was 7.35%; in that of `COc1cccc(/C=C/C(=O)c2ccc(N)cc2)c1` [compound 2, (E)-1-(4-Aminophenyl)-3-(3-methoxyphenyl)prop-2-en-1-one], 22.4%; in that of `COc1ccc(/C=C/C(=O)c2ccc(Br)cc2)c(OC)c1` [compound 15, (E)-1-(4-Bromophenyl)-3-(2,4-dimethoxyphenyl)prop-2-en-1-one], 26.5%.

As for `COc1ccc(/C=C/C(=O)c2ccc(N)cc2)c(OC)c1` [compound 5, (E)-1-(4-Aminophenyl)-3-(2,4-dimethoxyphenyl)prop-2-en-1-one], the inhibition at 100 µM was determined as 38.2%.

For `COc1ccc(OC)c(/C=C/C(=O)c2ccccc2)c1` [compound 13, (E)-3-(2,5-Dimethoxyphenyl)-1-phenylprop-2-en-1-one], the inhibition at 100 µM was found to be 5.88%.

For the compound `COc1ccc(/C=C/C(=O)c2ccccc2)c(OC)c1` [compound 12, (E)-3-(2,4-Dimethoxyphenyl)-1-phenylprop-2-en-1-one], the inhibition at 100 µM was determined as 6.25%. In the case of `O=C(/C=C/c1ccccc1)c1ccccc1` [compound 17, (E)-1,3-diphenyl-2-propen-1-one] it was 22.1%.

For the origin of these results see PMC6271513, “Design and Synthesis of Chalcone Derivatives as Inhibitors of the Ferredoxin — Ferredoxin-NADP^+ Reductase Interaction of Plasmodium falciparum: Pursuing New Antimalarial Agents” (Molecules, 2014).
